Patent US20250230193A1, “CYCLIC COMPOUND HAVING SELECTIVE KRAS INHIBITORY EFFECT ON HRAS AND NRAS” (CHUGAI SEIYAKU KABUSHIKI KAISHA, priority 2022, published 2025)

Columns and labels:
[1] = molecular target: GDP-bound HRAS wild-type protein (Homo sapiens, UniProt P01112); assay: Binding to HRAS by surface plasmon resonance (SPR), Single Cycle Kinetics; conditions: SPR, GDP-bound HRAS wild-type vs GDP-bound KRAS wild-type
[2] = molecular target: GDP-bound NRAS wild-type protein (Homo sapiens, UniProt P01111); assay: Binding to NRAS by surface plasmon resonance (SPR), Single Cycle Kinetics; conditions: SPR, GDP-bound NRAS wild-type vs GDP-bound KRAS wild-type
Sequence of GDP-bound NRAS wild-type protein (P01111 whole entry): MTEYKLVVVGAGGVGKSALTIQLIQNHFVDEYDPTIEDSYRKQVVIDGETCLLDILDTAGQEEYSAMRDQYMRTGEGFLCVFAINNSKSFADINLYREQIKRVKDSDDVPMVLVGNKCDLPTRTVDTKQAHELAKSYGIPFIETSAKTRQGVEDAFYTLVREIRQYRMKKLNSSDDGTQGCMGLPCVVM

Sequence of GDP-bound HRAS wild-type protein (P01112 whole entry): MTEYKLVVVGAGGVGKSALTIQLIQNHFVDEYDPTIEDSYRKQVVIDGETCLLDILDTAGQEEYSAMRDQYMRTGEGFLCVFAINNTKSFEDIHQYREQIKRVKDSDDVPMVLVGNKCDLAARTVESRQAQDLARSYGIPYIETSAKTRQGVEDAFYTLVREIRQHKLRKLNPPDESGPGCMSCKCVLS

Compound: CC[C@H](C)[C@@H]1NC(=O)[C@H](CC(C)C)N(C)C(=O)C[C@@H](C(=O)N(C)CC)N(C)C(=O)[C@H](C2CCCC2)N(C)C(=O)C2(CC(C)(C)C2)NC(=O)[C@@H]2C[C@H](C)CN2C(=O)[C@H](CCc2cc(F)c(C(F)(F)F)c(F)c2)NC(=O)CN(C)C(=O)[C@H](Cc2ccc(C)cc2)N2CC/C=C\C[C@@H](C2=O)N(C)C(=O)[C@@H]2CCCN2C1=O [PP2411]
- HRAS/KRAS (ratio of KD value with respect to HRAS to KD value with respect to KRAS) [1]: A (a compound having 10 or more and less than 20 is denoted as A)
- NRAS/KRAS (ratio of KD value with respect to NRAS to KD value with respect to KRAS) [2]: A (a compound having 10 or more and less than 20 is denoted as A)

Compound: CCO[C@H](C)[C@@H]1NC(=O)[C@H](CC(C)C)N(C)C(=O)C[C@@H](C(=O)N(C)C)N(C)C(=O)[C@H](C2CCCC2)N(C)C(=O)C2(CC(C)(C)C2)NC(=O)[C@@H]2C[C@H](C)CN2C(=O)[C@H](CCc2ccc(C(F)(F)F)c(OC)c2)NC(=O)CN(C)C(=O)[C@H](Cc2ccc(C)cc2)N2CC/C=C\C[C@@H](C2=O)N(C)C(=O)CN(C)C1=O [PP2412]
- HRAS/KRAS (ratio of KD value with respect to HRAS to KD value with respect to KRAS) [1]: B (a compound having 3 or more and less than 10 is denoted as B)
- NRAS/KRAS (ratio of KD value with respect to NRAS to KD value with respect to KRAS) [2]: A (a compound having 10 or more and less than 20 is denoted as A)

Compound: CCO[C@H](C)[C@@H]1NC(=O)[C@H](CC(C)C)N(C)C(=O)C[C@@H](C(=O)N(C)CC)N(C)C(=O)[C@H](C2CCCC2)N(C)C(=O)C2(CC(C)(C)C2)NC(=O)[C@@H]2C[C@H](C)CN2C(=O)[C@H](CCc2ccc(C(F)(F)F)c(OC)c2)NC(=O)CN(C)C(=O)[C@H](Cc2ccc(C)cc2)N2CC/C=C\C[C@@H](C2=O)N(C)C(=O)CN(C)C1=O [PP2413]
- HRAS/KRAS (ratio of KD value with respect to HRAS to KD value with respect to KRAS) [1]: A (a compound having 10 or more and less than 20 is denoted as A)
- NRAS/KRAS (ratio of KD value with respect to NRAS to KD value with respect to KRAS) [2]: A (a compound having 10 or more and less than 20 is denoted as A)

Compound: CCO[C@H](C)[C@@H]1NC(=O)[C@H](CC(C)C)N(C)C(=O)C[C@@H](C(=O)N(C)CC)N(C)C(=O)[C@H](C2CCCC2)N(C)C(=O)C2(CC(C)(C)C2)NC(=O)[C@@H]2C[C@H](C)CN2C(=O)[C@H](CCc2cc(F)c(C(F)(F)F)c(F)c2)NC(=O)CN(C)C(=O)[C@H](Cc2ccc(C)cc2)N2CC/C=C\C[C@@H](C2=O)N(C)C(=O)CN(C)C1=O [PP2414]
- HRAS/KRAS (ratio of KD value with respect to HRAS to KD value with respect to KRAS) [1]: A (a compound having 10 or more and less than 20 is denoted as A)
- NRAS/KRAS (ratio of KD value with respect to NRAS to KD value with respect to KRAS) [2]: A (a compound having 10 or more and less than 20 is denoted as A)

Compound: CCCO[C@H](C)[C@@H]1NC(=O)[C@H](CC(C)C)N(C)C(=O)C[C@@H](C(=O)N(C)C)N(C)C(=O)[C@H](C2CCCC2)N(C)C(=O)C2(CC(C)(C)C2)NC(=O)[C@@H]2C[C@H](C)CN2C(=O)[C@H](CCc2ccc(C(F)(F)F)c(OC)c2)NC(=O)CN(C)C(=O)[C@H](Cc2ccc(C)cc2)N2CC/C=C\C[C@@H](C2=O)N(C)C(=O)CN(C)C1=O [PP2415]
- HRAS/KRAS (ratio of KD value with respect to HRAS to KD value with respect to KRAS) [1]: A (a compound having 10 or more and less than 20 is denoted as A)
- NRAS/KRAS (ratio of KD value with respect to NRAS to KD value with respect to KRAS) [2]: AA (a compound having 20 or more is denoted as AA)

Compound: CCCO[C@H](C)[C@@H]1NC(=O)[C@H](CC(C)C)N(C)C(=O)C[C@@H](C(=O)N(C)CC)N(C)C(=O)[C@H](C2CCCC2)N(C)C(=O)C2(CC(C)(C)C2)NC(=O)[C@@H]2C[C@H](C)CN2C(=O)[C@H](CCc2ccc(C(F)(F)F)c(OC)c2)NC(=O)CN(C)C(=O)[C@H](Cc2ccc(C)cc2)N2CC/C=C\C[C@@H](C2=O)N(C)C(=O)CN(C)C1=O [PP2416]
- HRAS/KRAS (ratio of KD value with respect to HRAS to KD value with respect to KRAS) [1]: B (a compound having 3 or more and less than 10 is denoted as B)
- NRAS/KRAS (ratio of KD value with respect to NRAS to KD value with respect to KRAS) [2]: A (a compound having 10 or more and less than 20 is denoted as A)

Compound: CCCO[C@H](C)[C@@H]1NC(=O)[C@H](CC(C)C)N(C)C(=O)C[C@@H](C(=O)N(C)CC)N(C)C(=O)[C@H](C2CCCC2)N(C)C(=O)C2(CC(C)(C)C2)NC(=O)[C@@H]2C[C@H](C)CN2C(=O)[C@H](CCc2cc(F)c(C(F)(F)F)c(F)c2)NC(=O)CN(C)C(=O)[C@H](Cc2ccc(C)cc2)N2CC/C=C\C[C@@H](C2=O)N(C)C(=O)CN(C)C1=O [PP2417]
- HRAS/KRAS (ratio of KD value with respect to HRAS to KD value with respect to KRAS) [1]: A (a compound having 10 or more and less than 20 is denoted as A)
- NRAS/KRAS (ratio of KD value with respect to NRAS to KD value with respect to KRAS) [2]: A (a compound having 10 or more and less than 20 is denoted as A)

Compound: CCO[C@H](C)[C@@H]1NC(=O)[C@H](CC(C)C)N(C)C(=O)C[C@@H](C(=O)N(C)C)N(C)C(=O)[C@H](C2CCCC2)N(C)C(=O)C2(CC(C)(C)C2)NC(=O)[C@@H]2C[C@H](C)CN2C(=O)[C@H](CCc2ccc(C(F)(F)F)c(OC)c2)NC(=O)CN(C)C(=O)[C@H](Cc2ccc(C)cc2)N2CC/C=C\C[C@@H](C2=O)N(C)C(=O)[C@@H]2CCCN2C1=O [PP2418]
- HRAS/KRAS (ratio of KD value with respect to HRAS to KD value with respect to KRAS) [1]: B (a compound having 3 or more and less than 10 is denoted as B)
- NRAS/KRAS (ratio of KD value with respect to NRAS to KD value with respect to KRAS) [2]: A (a compound having 10 or more and less than 20 is denoted as A)

Compound: CCO[C@H](C)[C@@H]1NC(=O)[C@H](CC(C)C)N(C)C(=O)C[C@@H](C(=O)N(C)CC)N(C)C(=O)[C@H](C2CCCC2)N(C)C(=O)C2(CC(C)(C)C2)NC(=O)[C@@H]2C[C@H](C)CN2C(=O)[C@H](CCc2ccc(C(F)(F)F)c(OC)c2)NC(=O)CN(C)C(=O)[C@H](Cc2ccc(C)cc2)N2CC/C=C\C[C@@H](C2=O)N(C)C(=O)[C@@H]2CCCN2C1=O [PP2419]
- HRAS/KRAS (ratio of KD value with respect to HRAS to KD value with respect to KRAS) [1]: A (a compound having 10 or more and less than 20 is denoted as A)
- NRAS/KRAS (ratio of KD value with respect to NRAS to KD value with respect to KRAS) [2]: A (a compound having 10 or more and less than 20 is denoted as A)

Compound: CCOC[C@H]1C(=O)N[C@@H]([C@@H](C)OCC)C(=O)N(C)CC(=O)N(C)[C@H]2C/C=C\CCN(C2=O)[C@@H](Cc2ccc(C)cc2)C(=O)N(C)CC(=O)N[C@@H](CCc2cc(F)c(C(F)(F)F)c(F)c2)C(=O)N2C[C@@H](C)C[C@H]2C(=O)NC2(CC(C)(C)C2)C(=O)N(C)[C@@H](C2CCCC2)C(=O)N(C)[C@H](C(=O)N(C)CC)CC(=O)N1C [PP2422]
- HRAS/KRAS (ratio of KD value with respect to HRAS to KD value with respect to KRAS) [1]: A (a compound having 10 or more and less than 20 is denoted as A)
- NRAS/KRAS (ratio of KD value with respect to NRAS to KD value with respect to KRAS) [2]: A (a compound having 10 or more and less than 20 is denoted as A)

Compound: CCCOC[C@H]1C(=O)N[C@@H]([C@@H](C)OCC)C(=O)N(C)CC(=O)N(C)[C@H]2C/C=C\CCN(C2=O)[C@@H](Cc2ccc(C)cc2)C(=O)N(C)CC(=O)N[C@@H](CCc2ccc(C(F)(F)F)c(OC)c2)C(=O)N2C[C@@H](C)C[C@H]2C(=O)NC2(CC(C)(C)C2)C(=O)N(C)[C@@H](C2CCCC2)C(=O)N(C)[C@H](C(=O)N(C)CC)CC(=O)N1C [PP2423]
- HRAS/KRAS (ratio of KD value with respect to HRAS to KD value with respect to KRAS) [1]: A (a compound having 10 or more and less than 20 is denoted as A)
- NRAS/KRAS (ratio of KD value with respect to NRAS to KD value with respect to KRAS) [2]: A (a compound having 10 or more and less than 20 is denoted as A)

Compound: CCCOC[C@H]1C(=O)N[C@@H]([C@@H](C)OCC)C(=O)N(C)CC(=O)N(C)[C@H]2C/C=C\CCN(C2=O)[C@@H](Cc2ccc(C)cc2)C(=O)N(C)CC(=O)N[C@@H](CCc2cc(F)c(C(F)(F)F)c(F)c2)C(=O)N2C[C@@H](C)C[C@H]2C(=O)NC2(CC(C)(C)C2)C(=O)N(C)[C@@H](C2CCCC2)C(=O)N(C)[C@H](C(=O)N(C)CC)CC(=O)N1C [PP2424]
- HRAS/KRAS (ratio of KD value with respect to HRAS to KD value with respect to KRAS) [1]: A (a compound having 10 or more and less than 20 is denoted as A)
- NRAS/KRAS (ratio of KD value with respect to NRAS to KD value with respect to KRAS) [2]: A (a compound having 10 or more and less than 20 is denoted as A)

Compound: CCCO[C@H](C)[C@@H]1NC(=O)[C@H](COCC)N(C)C(=O)C[C@@H](C(=O)N(C)CC)N(C)C(=O)[C@H](C2CCCC2)N(C)C(=O)C2(CC(C)(C)C2)NC(=O)[C@@H]2C[C@H](C)CN2C(=O)[C@H](CCc2ccc(C(F)(F)F)c(OC)c2)NC(=O)CN(C)C(=O)[C@H](Cc2ccc(C)cc2)N2CC/C=C\C[C@@H](C2=O)N(C)C(=O)CN(C)C1=O [PP2425]
- HRAS/KRAS (ratio of KD value with respect to HRAS to KD value with respect to KRAS) [1]: A (a compound having 10 or more and less than 20 is denoted as A)
- NRAS/KRAS (ratio of KD value with respect to NRAS to KD value with respect to KRAS) [2]: AA (a compound having 20 or more is denoted as AA)

Compound: CCCO[C@H](C)[C@@H]1NC(=O)[C@H](COCC)N(C)C(=O)C[C@@H](C(=O)N(C)CC)N(C)C(=O)[C@H](C2CCCC2)N(C)C(=O)C2(CC(C)(C)C2)NC(=O)[C@@H]2C[C@H](C)CN2C(=O)[C@H](CCc2cc(F)c(C(F)(F)F)c(F)c2)NC(=O)CN(C)C(=O)[C@H](Cc2ccc(C)cc2)N2CC/C=C\C[C@@H](C2=O)N(C)C(=O)CN(C)C1=O [PP2426]
- HRAS/KRAS (ratio of KD value with respect to HRAS to KD value with respect to KRAS) [1]: A (a compound having 10 or more and less than 20 is denoted as A)
- NRAS/KRAS (ratio of KD value with respect to NRAS to KD value with respect to KRAS) [2]: AA (a compound having 20 or more is denoted as AA)

Compound: CCOC[C@H]1C(=O)N[C@@H]([C@@H](C)CC)C(=O)N2CCC[C@H]2C(=O)N(C)[C@H]2C/C=C\CCN(C2=O)[C@@H](Cc2ccc(C)cc2)C(=O)N(C)CC(=O)N[C@@H](CCc2ccc(C(F)(F)F)c(OC)c2)C(=O)N2C[C@@H](C)C[C@H]2C(=O)NC2(CC(C)(C)C2)C(=O)N(C)[C@@H](C2CCCC2)C(=O)N(C)[C@H](C(=O)N(C)CC)CC(=O)N1C [PP2427]
- HRAS/KRAS (ratio of KD value with respect to HRAS to KD value with respect to KRAS) [1]: A (a compound having 10 or more and less than 20 is denoted as A)
- NRAS/KRAS (ratio of KD value with respect to NRAS to KD value with respect to KRAS) [2]: AA (a compound having 20 or more is denoted as AA)

Compound: CCOC[C@H]1C(=O)N[C@@H]([C@@H](C)CC)C(=O)N2CCC[C@H]2C(=O)N(C)[C@H]2C/C=C\CCN(C2=O)[C@@H](Cc2ccc(C)cc2)C(=O)N(C)CC(=O)N[C@@H](CCc2cc(F)c(C(F)(F)F)c(F)c2)C(=O)N2C[C@H](OCC)C[C@H]2C(=O)NC2(CC(C)(C)C2)C(=O)N(C)[C@@H](C2CCCC2)C(=O)N(C)[C@H](C(=O)N(C)CC)CC(=O)N1C [PP2428]
- HRAS/KRAS (ratio of KD value with respect to HRAS to KD value with respect to KRAS) [1]: A (a compound having 10 or more and less than 20 is denoted as A)
- NRAS/KRAS (ratio of KD value with respect to NRAS to KD value with respect to KRAS) [2]: A (a compound having 10 or more and less than 20 is denoted as A)
